According to patent US20260103461A1, “ESTROGEN RECEPTOR MODULATORS AND USES THEREOF” (Olema Pharmaceuticals, Inc., priority 2022, published 2026):

Each compound was assayed against T1, estrogen receptor (Homo sapiens, UniProt P03372) (assay: AP (alkaline phosphatase) assay in ECC-1 cells, agonist mode and antagonist mode). Conditions: 3 days, absence of E2 (agonist mode) or 500 pM E2 (antagonist mode), AP activity normalized to 500 pM E2 alone.
T1 construct: endogenous in cells; host or cells: ECC-1 cells
T1 sequence (P03372 1-595): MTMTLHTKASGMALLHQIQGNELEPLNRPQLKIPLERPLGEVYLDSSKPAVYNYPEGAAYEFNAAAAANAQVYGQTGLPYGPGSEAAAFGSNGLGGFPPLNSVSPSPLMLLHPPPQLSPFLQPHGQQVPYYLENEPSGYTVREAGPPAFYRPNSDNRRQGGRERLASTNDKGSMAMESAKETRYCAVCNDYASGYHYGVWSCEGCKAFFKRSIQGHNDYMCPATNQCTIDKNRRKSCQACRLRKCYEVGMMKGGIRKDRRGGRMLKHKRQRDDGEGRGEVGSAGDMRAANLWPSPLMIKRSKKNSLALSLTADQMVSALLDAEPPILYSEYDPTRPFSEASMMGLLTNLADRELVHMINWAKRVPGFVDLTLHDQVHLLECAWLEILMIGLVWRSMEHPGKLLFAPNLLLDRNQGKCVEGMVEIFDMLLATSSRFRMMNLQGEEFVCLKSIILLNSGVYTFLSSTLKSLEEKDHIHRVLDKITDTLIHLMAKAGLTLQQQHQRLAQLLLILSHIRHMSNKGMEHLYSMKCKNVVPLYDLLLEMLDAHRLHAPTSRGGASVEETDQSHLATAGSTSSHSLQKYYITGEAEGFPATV
Format: cell-based
Description: ECC-1 cells were trypsinized and resuspended in hormone-depleted media and plated at a density of 15 k cells per well into a 96-well plate for at least 4 hours. Cells were treated with test compounds in the absence of E2 (for agonist mode) or in the presence of 500 pM E2 (for antagonist mode) for 3 days and plates were subsequently frozen at −80° C. Thawed plates were incubated with a chromogenic substrate of AP, p-nitrophenyl phosphate (Thermo Fisher Scientific), for 40 minutes at 42° C., and absorbances were read at 405 nm. AP activity was normalized to the activity of 500 pM E2 alone.
The compound numbers correspond to the compound numbers of Table 1 and 2. Compounds having an activity designated as “+” provided estrogen receptor agonism having (i) at least 80% increase in the E2-normalized signal in the AP assay (agonist mode) and (ii) no more than 80% reduction in the E2-normalized signal in the AP assay (antagonist mode). Compounds having an activity designated as “++” provided estrogen receptor antagonism having (i) between 10% and 80% increase in the E2-normalized signal in the AP assay (agonist mode) and (ii) between 10% and 80% reduction in the E2-normalized signal in the AP assay (antagonist mode).

Row | SMILES | Activity (estrogen receptor modulation, agonism and antagonism)
1 | CCCN1CC(Oc2ccc([C@@H]3c4[nH]c5ccccc5c4C[C@@H](C)N3CC(C)(C)F)s2)C1 [Example I-1, 3-({5-[(1S,3R)-2-(2-fluoro-2-methylpropyl)-3-methyl-1H,2H,3H,4H,9H-pyrido[3,4-b]indol-1-yl]thiophen-2-yl}oxy)-1-propylazetidine] | ++ (estrogen receptor antagonism having (i) between 10% and 80% increase in the E2-normalized signal in the AP assay (agonist mode) and (ii) between 10% and 80% reduction in the E2-normalized signal in the AP assay (antagonist mode))
2 | C[C@@H]1Cc2c([nH]c3ccccc23)[C@@H](c2ccc(OC3CN(CCCF)C3)s2)N1CC(C)(C)F [Example I-2, 3-({5-[(1S,3R)-2-(2-fluoro-2-methylpropyl)-3-methyl-1H,2H,3H,4H,9H-pyrido[3,4-b]indol-1-yl]thiophen-2-yl}oxy)-1-(3-fluoropropyl)azetidine] | ++ (estrogen receptor antagonism having (i) between 10% and 80% increase in the E2-normalized signal in the AP assay (agonist mode) and (ii) between 10% and 80% reduction in the E2-normalized signal in the AP assay (antagonist mode))
3 | CCCN1CC(Oc2ncc([C@@H]3c4[nH]c5ccccc5c4C[C@@H](C)N3CC(C)(C)F)s2)C1 [Example I-3, 5-[(1S,3R)-2-(2-fluoro-2-methylpropyl)-3-methyl-1H,2H,3H,4H,9H-pyrido[3,4-b]indol-1-yl]-2-[(1-propylazetidin-3-yl)oxy]-1,3-thiazole] | ++ (estrogen receptor antagonism having (i) between 10% and 80% increase in the E2-normalized signal in the AP assay (agonist mode) and (ii) between 10% and 80% reduction in the E2-normalized signal in the AP assay (antagonist mode))
4 | C[C@@H]1Cc2c([nH]c3ccccc23)[C@@H](c2ccc(O[C@H]3CCN(CCCF)C3)s2)N1CC(C)(C)F [Example I-4, (3S)-3-({5-[(1S,3R)-2-(2-fluoro-2-methylpropyl)-3-methyl-1H,2H,3H,4H,9H-pyrido[3,4-b]indol-1-yl]thiophen-2-yl}oxy)-1-(3-fluoropropyl)pyrrolidine] | +++ (estrogen receptor antagonism (i) with pIC50 greater than 7.5 and at least a 10% reduction in the E2-normalized signal in the AP assay (antagonist mode); and no more than 10% increase in E2-normalized signal in the AP assay (agonist mode))
5 | C[C@@H]1Cc2c([nH]c3ccccc23)[C@@H](c2ccc(O[C@@H]3CCN(CCCF)C3)s2)N1CC(C)(C)F [Example I-5, (3R)-3-({5-[(1S,3R)-2-(2-fluoro-2-methylpropyl)-3-methyl-1H,2H,3H,4H,9H-pyrido[3,4-b]indol-1-yl]thiophen-2-yl}oxy)-1-(3-fluoropropyl)pyrrolidine] | + (estrogen receptor agonism having (i) at least 80% increase in the E2-normalized signal in the AP assay (agonist mode) and (ii) no more than 80% reduction in the E2-normalized signal in the AP assay (antagonist mode))
6 | C[C@@H]1Cc2c([nH]c3ccccc23)[C@@H](c2ncc(O[C@H]3CCN(CCCF)C3)s2)N1CC(C)(C)F [Example I-6, 2-[(1S,3R)-2-(2-fluoro-2-methylpropyl)-3-methyl-1H,2H,3H,4H,9H-pyrido[3,4-b]indol-1-yl]-5-{[(3S)-1-(3-fluoropropyl)pyrrolidin-3-yl]oxy}-1,3-thiazole] | ++ (estrogen receptor antagonism having (i) between 10% and 80% increase in the E2-normalized signal in the AP assay (agonist mode) and (ii) between 10% and 80% reduction in the E2-normalized signal in the AP assay (antagonist mode))
7 | C[C@@H]1Cc2c([nH]c3ccccc23)[C@@H](c2ccc(O[C@H]3CCN(CCC(F)F)C3)s2)N1CC(C)(C)F [Example I-8, (1S,3R)-1-(5-(((S)-1-(3,3-difluoropropyl)pyrrolidin-3-yl)oxy)thiophen-2-yl)-2-(2-fluoro-2-methylpropyl)-3-methyl-2,3,4,9-tetrahydro-1H-pyrido[3,4-b]indole] | ++ (estrogen receptor antagonism having (i) between 10% and 80% increase in the E2-normalized signal in the AP assay (agonist mode) and (ii) between 10% and 80% reduction in the E2-normalized signal in the AP assay (antagonist mode))
8 | C[C@@H]1Cc2c([nH]c3ccccc23)[C@@H](c2ncc(OC3CN(CCCF)C3)s2)N1CC(C)(C)F [Example I-9, 2-[(1S,3R)-2-(2-fluoro-2-methyl-propyl)-3-methyl-1,3,4,9-tetrahydropyrido[3,4-b]indol-1-yl]-5-[1-(3-fluoropropyl)azetidin-3-yl]oxy-thiazole] | ++ (estrogen receptor antagonism having (i) between 10% and 80% increase in the E2-normalized signal in the AP assay (agonist mode) and (ii) between 10% and 80% reduction in the E2-normalized signal in the AP assay (antagonist mode))
9 | CCCN1CC[C@@H](Oc2ccc([C@@H]3c4[nH]c5ccccc5c4C[C@@H](C)N3CC(C)(C)F)s2)C1 [Example I-10, (1S,3R)-2-(2-fluoro-2-methyl-propyl)-3-methyl-1-[5-[(3R)-1-propylpyrrolidin-3-yl]oxy-2-thienyl]-1,3,4,9-tetrahydropyrido[3,4-b]indole] | + (estrogen receptor agonism having (i) at least 80% increase in the E2-normalized signal in the AP assay (agonist mode) and (ii) no more than 80% reduction in the E2-normalized signal in the AP assay (antagonist mode))
10 | C[C@@H]1Cc2c([nH]c3ccccc23)[C@@H](c2ncc(O[C@@H]3CCN(CCCF)C3)s2)N1CC(C)(C)F [Example I-11, 2-[(1S,3R)-2-(2-fluoro-2-methyl-propyl)-3-methyl-1,3,4,9-tetrahydropyrido[3,4-b]indol-1-yl]-5-[(3R)-1-(3-fluoropropyl)pyrrolidin-3-yl]oxy-thiazole] | ++ (estrogen receptor antagonism having (i) between 10% and 80% increase in the E2-normalized signal in the AP assay (agonist mode) and (ii) between 10% and 80% reduction in the E2-normalized signal in the AP assay (antagonist mode))
11 | C[C@@H]1Cc2c([nH]c3ccccc23)[C@@H](c2ccc(OC3CN(CCCF)C3)s2)N1CC(F)(F)CO [Example I-12, 2,2-difluoro-3-[(1S,3R)-1-[5-[1-(3-fluoropropyl)azetidin-3-yl]oxy-2-thienyl]-3-methyl-1,3,4,9-tetrahydropyrido[3,4-b]indol-2-yl]propan-1-ol] | +++ (estrogen receptor antagonism (i) with pIC50 greater than 7.5 and at least a 10% reduction in the E2-normalized signal in the AP assay (antagonist mode); and no more than 10% increase in E2-normalized signal in the AP assay (agonist mode))
12 | C[C@@H]1Cc2c([nH]c3ccccc23)[C@@H](c2ccc(O[C@@H]3CCN(CCCF)C3)s2)N1CC(F)(F)CO [Example I-13, 2,2-difluoro-3-[(1S,3R)-1-[5-[(3R)-1-(3-fluoropropyl)pyrrolidin-3-yl]oxy-2-thienyl]-3-methyl-1,3,4,9-tetrahydropyrido[3,4-b]indol-2-yl]propan-1-ol] | +++ (estrogen receptor antagonism (i) with pIC50 greater than 7.5 and at least a 10% reduction in the E2-normalized signal in the AP assay (antagonist mode); and no more than 10% increase in E2-normalized signal in the AP assay (agonist mode))
